Patent US20260056187A1, “METHODS OF FORMING PATIENT-DERIVED 3D CELL CULTURES FOR TRACKING LIVE IMMUNE-TUMOR INTERACTIONS” (OUROTECH, INC., priority 2022, published 2026)

Experiments:
[1] = tested on: TNBC cell line xenografts (CDXs); conditions: BRGS-HIS mice with TNBC CDXs; cited from earlier work
[2] = tested on: 3D tumor-immune culture from a patient with renal cell carcinoma (tumor cells and matched PBMCs); test: 3D tumor-immune culture, Keytruda treatment compared to CD3 activation, live cell imaging over 5 days (Example 17); type: cell-based, human; conditions: for tumor-containing hydrogel dome volume: 10 μg/mL Keytruda vs CD3-activated/control culture, evident by Day 1
Description: A) An aliquot of pembrolizumab (25 mg/mL) was diluted in PBS to achieve a working stock of 1 mg/mL. 2 μL of this stock is added to the tumor-immune culture to achieve a final dose of 10 μg/mL. In parallel, 2 μL of a 1 mg/mL stock of human anti-IgG4 is added to a negative control tumor-immune culture.
A tumor sample and matched blood sample from a patient with renal cell carcinoma were prepared according to the foregoing Examples and methods. Briefly, PBMCs were isolated from blood and CD8^+ and CD8^− cells were separated, stained, and recombined as previously described. PBMCs were either cultured with 1 μg/mL anti-CD3 or 10 μg/mL Keytruda for 18 hours. Tumors were dissociated and stained and 10,000 cells were encapsulated in hydrogel as previously described. At TO, 100,000 PBMCs from each condition were added to tumor cultures. Live cell imaging, using confocal microscopy, was conducted each day for 5 days and images were analyzed using the disclosed computer vision pipeline. The presented data are from single replicates obtained from one experiment.

[3] = tested on: kidney tumor cells with PBMCs (1:5); test: 3D tumor-immune co-culture, combination therapies, change in tumor cell numbers over 3 days (Example 19); conditions: normalized to Day 0, staurosporine 5 μM, axitinib 10 μM + pembrolizumab 10 μg/mL, n=3

## nivolumab
[1]
  time after treatment until significant effect on tumor volume relative to vehicle control: ≥ 10 days

## pembrolizumab [Keytruda]
[2]; 10 μg/mL Keytruda or 1 μg/mL anti-CD3, over 5 days, single replicate
  clustering of hydrogel-infiltrated CD8+ PBMCs: more clustering over time
[2]; 10 μg/mL Keytruda vs CD3-activated sample, Day 1
  rate of dome volume shrinking: higher at Day 1
[2]; 10 μg/mL Keytruda vs CD3-activated sample, evident by Day 2, single replicate
  viability of tumor cells / tumor cell death: increased tumor cell death
[2]; 10 μg/mL Keytruda vs CD3-activated sample, over 5 days, single replicate
  speed of CD8+ PBMCs infiltrated into the hydrogel (migration peak speed): higher CD8^+ cell migration peak speed
[2]; single replicate
  tumor-containing hydrogel dome volume: dome volume shrinks more
[2]; single replicate, listed as Keytruda/pembrolizumab
  tumor-containing hydrogel dome volume: measurable, and noticeable, and may be statistically significantly different, by one day after adding the treatment
[2]; 10 μg/mL Keytruda vs CD3 activation, throughout 5 days, single replicate
  clustering of hydrogel-infiltrated CD8- and CD8+ PBMCs together: clustered together more
[2]; PBMCs cultured 18 hours with 10 μg/mL Keytruda vs 1 μg/mL anti-CD3, evident as early as Day 1, single replicate
  infiltration of CD8+ PBMCs into the tumor-containing hydrogel (absolute counts): increased infiltration of CD8^+ cells into the tumor-containing hydrogel

## CN[C@@H]1C[C@H]2O[C@@](C)([C@@H]1OC)n1c3ccccc3c3c4c(c5c6ccccc6n2c5c31)C(=O)NC4 [Staurosporine]
[3]
  change in tumor cell count: decreased tumor cell count the most
